Results from patent US20100179185A1, “Novel Aminothienopyridinone Derivatives Processes for Preparing Them and Pharmaceutical Compositions Thereof” (UCB PHARMA, S.A., priority 2006, published 2010).

Assays:
[1] = tested on: LPS stimulated TNF release in rat; test: Rat LPS induced TNF release; type: in vivo; details: 1.5 h, male Lewis rats, LPS 1 mg/kg i.v., plasma TNFα at 90 minutes, compound dosed p.o.
Protocol: Male Lewis rats (180-200 g) are anaesthetized with Isofluor and injected i.v. with LPS (1 mg/kg) in a volume of 0.5 ml sterile saline. After 90 minutes blood is collected into heparin tubes for preparation of plasma samples. Plasma is stored at −80° C. prior to assay for TNFα by commercial ELISA.

[2] = tested on: LPS stimulated release of TNF from Human whole blood; test: LPS stimulation of whole blood, TNF-α release (ELISA); type: cell-based; details: LPS 1 μg/ml, 18 hours, 37° C., n=12
Protocol: Inhibitor stocks (10 mM) are kept as a frozen solution (−20° C.) in DMSO. Serial dilutions of inhibitors are prepared in DMSO as 200-times concentrated stocks. Inhibitors are diluted 1 in 200 into tissue culture media, prewarmed to 37° C. and transferred to plates containing PBMC. PBMC and inhibitors are incubated together for 30 mins prior to addition of LPS. Inhibitors used in whole blood assays are prepared according to a different regime. Using the same stock solution, serial dilutions of inhibitors are prepared in DMSO. Inhibitors (14) are then diluted 1 in 500 straight into whole blood. Inhibitor is incubated with whole blood for 30 mins prior to the addition of LPS.
Whole blood is taken by venous puncture using heparinised vacutainers (Becton Dickinson), and 500 μl of blood aliquoted into each well of a 96 deep well plate. After the addition of inhibitor, blood is stimulated with an optimal dose of LPS (E coli strain B5:055, Sigma, at a final concentration of 1 μg ml^−1) and incubated at 37° C. without CO2 for 18 hours. TNF-α levels are measured from cell free supernatants by sandwich ELISA (R&D Systems, # DY210).

- IC50 [2]: 30 to 200 nM
SMILES: Cc1cccc(Nc2c(C(=O)N3CCC[C@@H]3CO)sc3c2ccc(=O)n3-c2c(F)cccc2F)n1 [Compound 1]
- ED50 [1]: < 10 mg/kg
